The source made the active and inactive calls. No rule for the calls is given here.
System: CCRIS mutagenicity, Ames/micronucleus/aberration tests
Experiment: CCRIS mutagenicity studies

SMILES: Nc1nc(-c2ccc([N+](=O)[O-])cc2)nc2c1ncn2[C@@H]1O[C@H](CO)[C@@H](O)[C@H]1O
- mutagenic call (Test System: AMES SALMONELLA TYPHIMURIUM, Strain/Indicator: TA98(1,8-DNP), Metabolic Activation: NONE, Method: PREINCUBATION): active; positive
- mutagenic call (Test System: AMES SALMONELLA TYPHIMURIUM, Strain/Indicator: TA98(NR), Metabolic Activation: NONE, Method: PREINCUBATION): active; positive
- mutagenic call (Test System: AMES SALMONELLA TYPHIMURIUM, Strain/Indicator: TA98(NR), Metabolic Activation: RAT, LIVER, S-9, PCB, Method: PREINCUBATION): inactive; negative
- mutagenic call (Test System: AMES SALMONELLA TYPHIMURIUM, Strain/Indicator: TA98, Metabolic Activation: NONE, Method: PREINCUBATION): active; positive
- mutagenic call (Test System: AMES SALMONELLA TYPHIMURIUM, Strain/Indicator: TA98, Metabolic Activation: RAT, LIVER, S-9, PCB, Method: PREINCUBATION): active; positive
- mutagenic call (Test System: AMES SALMONELLA TYPHIMURIUM, Strain/Indicator: TA100(1,8-DNP), Metabolic Activation: RAT, LIVER, S-9, PCB, Method: PREINCUBATION): inactive; negative
- mutagenic call (Test System: AMES SALMONELLA TYPHIMURIUM, Strain/Indicator: TA100(NR), Metabolic Activation: RAT, LIVER, S-9, PCB, Method: PREINCUBATION): inactive; negative
- mutagenic call (Test System: AMES SALMONELLA TYPHIMURIUM, Strain/Indicator: TA100, Metabolic Activation: NONE, Method: PREINCUBATION): active; positive
- mutagenic call (Test System: AMES SALMONELLA TYPHIMURIUM, Strain/Indicator: TA100, Metabolic Activation: RAT, LIVER, S-9, PCB, Method: PREINCUBATION): active; positive
- mutagenic call (Test System: AMES SALMONELLA TYPHIMURIUM, Strain/Indicator: YG1020, Metabolic Activation: NONE, Method: PREINCUBATION): active; positive
- mutagenic call (Test System: AMES SALMONELLA TYPHIMURIUM, Strain/Indicator: YG1020, Metabolic Activation: RAT, LIVER, S-9, PCB, Method: PREINCUBATION): active; positive
- mutagenic call (Test System: AMES SALMONELLA TYPHIMURIUM, Strain/Indicator: YG1021, Metabolic Activation: NONE, Method: PREINCUBATION): active; positive
- mutagenic call (Test System: AMES SALMONELLA TYPHIMURIUM, Strain/Indicator: YG1021, Metabolic Activation: RAT, LIVER, S-9, PCB, Method: PREINCUBATION): active; positive
- mutagenic call (Test System: AMES SALMONELLA TYPHIMURIUM, Strain/Indicator: YG1024, Metabolic Activation: NONE, Method: PREINCUBATION): active; positive
- mutagenic call (Test System: AMES SALMONELLA TYPHIMURIUM, Strain/Indicator: YG1024, Metabolic Activation: RAT, LIVER, S-9, PCB, Method: PREINCUBATION): active; positive
- mutagenic call (Test System: AMES SALMONELLA TYPHIMURIUM, Strain/Indicator: YG1025, Metabolic Activation: NONE, Method: PREINCUBATION): active; positive
- mutagenic call (Test System: AMES SALMONELLA TYPHIMURIUM, Strain/Indicator: YG1025, Metabolic Activation: RAT, LIVER, S-9, PCB, Method: PREINCUBATION): active; positive
- mutagenic call (Test System: AMES SALMONELLA TYPHIMURIUM, Strain/Indicator: YG1026, Metabolic Activation: NONE, Method: PREINCUBATION): active; positive
- mutagenic call (Test System: AMES SALMONELLA TYPHIMURIUM, Strain/Indicator: YG1026, Metabolic Activation: RAT, LIVER, S-9, PCB, Method: PREINCUBATION): active; positive
- mutagenic call (Test System: AMES SALMONELLA TYPHIMURIUM, Strain/Indicator: YG1029, Metabolic Activation: NONE, Method: PREINCUBATION): active; positive
- mutagenic call (Test System: AMES SALMONELLA TYPHIMURIUM, Strain/Indicator: YG1029, Metabolic Activation: RAT, LIVER, S-9, PCB, Method: PREINCUBATION): active; positive

SMILES: C/C=N/O
- mutagenic call (Test System: AMES SALMONELLA TYPHIMURIUM, Strain/Indicator: TA98, Metabolic Activation: HAMSTER, LIVER, S-9, AROCLOR 1254, Method: STANDARD PLATE): inactive; negative
- mutagenic call (Test System: AMES SALMONELLA TYPHIMURIUM, Strain/Indicator: TA98, Metabolic Activation: NONE, Method: STANDARD PLATE): inactive; negative
- mutagenic call (Test System: AMES SALMONELLA TYPHIMURIUM, Strain/Indicator: TA98, Metabolic Activation: RAT, LIVER, S-9, AROCLOR 1254, Method: STANDARD PLATE): inactive; negative
- mutagenic call (Test System: AMES SALMONELLA TYPHIMURIUM, Strain/Indicator: TA100, Metabolic Activation: HAMSTER, LIVER, S-9, AROCLOR 1254, Method: STANDARD PLATE): inactive; negative
- mutagenic call (Test System: AMES SALMONELLA TYPHIMURIUM, Strain/Indicator: TA100, Metabolic Activation: NONE, Method: STANDARD PLATE): inactive; negative
- mutagenic call (Test System: AMES SALMONELLA TYPHIMURIUM, Strain/Indicator: TA100, Metabolic Activation: RAT, LIVER, S-9, AROCLOR 1254, Method: STANDARD PLATE): inactive; negative
- mutagenic call (Test System: AMES SALMONELLA TYPHIMURIUM, Strain/Indicator: TA102, Metabolic Activation: RAT, LIVER, S-9, PHENOBARBITAL AND 5,6-BENZOFLAVONE, Method: STANDARD PLATE): inactive; negative
- mutagenic call (Test System: AMES SALMONELLA TYPHIMURIUM, Strain/Indicator: TA1535, Metabolic Activation: HAMSTER, LIVER, S-9, AROCLOR 1254, Method: STANDARD PLATE): inactive; negative
- mutagenic call (Test System: AMES SALMONELLA TYPHIMURIUM, Strain/Indicator: TA1535, Metabolic Activation: NONE, Method: STANDARD PLATE): inactive; negative
- mutagenic call (Test System: AMES SALMONELLA TYPHIMURIUM, Strain/Indicator: TA1535, Metabolic Activation: RAT, LIVER, S-9, AROCLOR 1254, Method: STANDARD PLATE): inactive; negative
- mutagenic call (Test System: AMES SALMONELLA TYPHIMURIUM, Strain/Indicator: TA1537, Metabolic Activation: HAMSTER, LIVER, S-9, AROCLOR 1254, Method: STANDARD PLATE): inactive; negative
- mutagenic call (Test System: AMES SALMONELLA TYPHIMURIUM, Strain/Indicator: TA1537, Metabolic Activation: NONE, Method: STANDARD PLATE): inactive; negative
- mutagenic call (Test System: AMES SALMONELLA TYPHIMURIUM, Strain/Indicator: TA1537, Metabolic Activation: RAT, LIVER, S-9, AROCLOR 1254, Method: STANDARD PLATE): inactive; negative
- mutagenic call (Test System: AMES SALMONELLA TYPHIMURIUM, Strain/Indicator: TA1538, Metabolic Activation: HAMSTER, LIVER, S-9, AROCLOR 1254, Method: STANDARD PLATE): inactive; negative
- mutagenic call (Test System: AMES SALMONELLA TYPHIMURIUM, Strain/Indicator: TA1538, Metabolic Activation: NONE, Method: STANDARD PLATE): inactive; negative
- mutagenic call (Test System: AMES SALMONELLA TYPHIMURIUM, Strain/Indicator: TA1538, Metabolic Activation: RAT, LIVER, S-9, AROCLOR 1254, Method: STANDARD PLATE): inactive; negative
- mutagenic call (Test System: AMES SALMONELLA TYPHIMURIUM, Strain/Indicator: TA2638, Metabolic Activation: RAT, LIVER, S-9, PHENOBARBITAL AND 5,6-BENZOFLAVONE, Method: STANDARD PLATE): inactive; negative
- mutagenic call (Test System: E. COLI, Strain/Indicator: WP2 (PKM101), Metabolic Activation: RAT, LIVER, S-9, PHENOBARBITAL AND 5,6-BENZOFLAVONE, Method: STANDARD PLATE): inactive; negative
- mutagenic call (Test System: E. COLI, Strain/Indicator: WP2 UVRA (PKM101), Metabolic Activation: RAT, LIVER, S-9, PHENOBARBITAL AND 5,6-BENZOFLAVONE, Method: STANDARD PLATE): inactive; negative
- mutagenic call (Test System: MOUSE LYMPHOMA, Strain/Indicator: L5178Y (TK+/TK-), Metabolic Activation: RAT, LIVER, S-9, AROCLOR 1254, Method: SUSPENSION/PLATE): active; positive. reevaluation of results: inconclusive
- mutagenic call (Test System: Mouse lymphoma, Strain/Indicator: L5178Y (tk+tk-), Metabolic Activation: None, Method: Suspension/plate): inactive; negative
- mutagenic call (Test System: Mouse lymphoma, Strain/Indicator: L5178Y (tk+tk-), Metabolic Activation: Rat, Liver, S-9, Aroclor 1254, Method: Suspension/plate): active; inconclusive (previously evaluated positive)

SMILES: C=Cc1ccc(S(=O)(=O)O)cc1
- mutagenic call (Test System: Ames Salmonella typhimurium, Strain/Indicator: TA98, Metabolic Activation: None, Method: Preincubation): inactive; negative
- mutagenic call (Test System: Ames Salmonella typhimurium, Strain/Indicator: TA98, Metabolic Activation: Rat, Liver, S-9, Phenobarbital and 5,6-benzoflavone, Method: Preincubation): inactive; negative
- mutagenic call (Test System: Ames Salmonella typhimurium, Strain/Indicator: TA100, Metabolic Activation: None, Method: Preincubation): inactive; negative
- mutagenic call (Test System: Ames Salmonella typhimurium, Strain/Indicator: TA100, Metabolic Activation: Rat, Liver, S-9, Phenobarbital and 5,6-benzoflavone, Method: Preincubation): inactive; negative
- mutagenic call (Test System: Ames Salmonella typhimurium, Strain/Indicator: TA1535, Metabolic Activation: None, Method: Preincubation): inactive; negative
- mutagenic call (Test System: Ames Salmonella typhimurium, Strain/Indicator: TA1535, Metabolic Activation: Rat, Liver, S-9, Phenobarbital and 5,6-benzoflavone, Method: Preincubation): inactive; negative
- mutagenic call (Test System: Ames Salmonella typhimurium, Strain/Indicator: TA1537, Metabolic Activation: None, Method: Preincubation): inactive; negative
- mutagenic call (Test System: Ames Salmonella typhimurium, Strain/Indicator: TA1537, Metabolic Activation: Rat, Liver, S-9, Phenobarbital and 5,6-benzoflavone, Method: Preincubation): inactive; negative
- mutagenic call (Test System: E. coli, Strain/Indicator: WP2uvrA/pKM101, Metabolic Activation: None, Method: Preincubation): inactive; negative
- mutagenic call (Test System: E. coli, Strain/Indicator: WP2uvrA/pKM101, Metabolic Activation: Rat, Liver, S-9, Phenobarbital and 5,6-benzoflavone, Method: Preincubation): inactive; negative
